This is an account of results in article PMC5038265 (Antimicrobial Agents and Chemotherapy, 2016).

Structures are written as SMILES. In brackets after ≈: the same amount, converted by molar mass. Where two headings read alike, the source gives them in different places. Where only a bound is given, the exact number is not on record here.

Test [1] has as its system multidrug-resistant M. tuberculosis isolates. Put plainly: microbe, parasite or virus in culture. As to conditions: for MIC: Mycobacterium tuberculosis, read-out: In vitro activity (MIC). In kind it is cell-based.
The test system of the next test is M. tuberculosis H37Rv. In kind it is cell-based.

`CCOc1ccc(Cl)c2c1B(O)O[C@@H]2CN` [Compound 13]: the “cross-resistance against multidrug-resistant isolates” value in test [1] is on record as “did not show any cross-resistance”. For the same compound, the MIC turned out to be 0.015 µg/mL (≈ 0.0621 µM) in test [1] (H37RV, M. tuberculosis H37Rv) and 0.015 µg/mL (≈ 0.0621 µM) in test [1]. In test [1] (listed as Cmp13), the “In vitro activity (MIC)” value is listed as 0.030 µg/mL.

As for `CCOc1ccc(Br)c2c1B(O)O[C@@H]2CN` [Compound 14], in the test on M. tuberculosis H37Rv, the “Resistance frequency at 4× MIC” value is listed as 4.6 × 10^−6 and the “Resistance frequency at 10× MIC” value is listed as 3.9 × 10^−6. For the same compound, in test [1], the “cross-resistance against multidrug-resistant isolates” value is reported as “did not show any cross-resistance” and the MIC stood at 0.03 µg/mL (≈ 0.105 µM). In test [1] (H37RV, M. tuberculosis H37Rv), the MIC amounted to 0.03 µg/mL (≈ 0.105 µM).

Turning to `NNC(=O)c1ccncc1` [Isoniazid, isoniazid, reference compound], in the test on M. tuberculosis H37Rv, the “Resistance frequency at 10× MIC” value is on record as 1.8 × 10^−5. Moreover, the MIC in test [1] (H37RV, M. tuberculosis H37Rv) is 0.06 µg/mL (≈ 0.438 µM); in test [1], over 0.12 µg/mL.

Turning to `COc1c(N2C[C@@H]3CCCN[C@@H]3C2)c(F)cc2c(=O)c(C(=O)O)cn(C3CC3)c12` [Moxifloxacin, moxifloxacin, reference compound], in the test on M. tuberculosis H37Rv, the “Resistance frequency at 4× MIC” value is recorded as 1.7 × 10^−7 and the “Resistance frequency at 10× MIC” value is 1.1 × 10^−8.
